Reference: patent US20090062273A1, “3-H-pyrazolopyridines and salts thereof, pharmaceutical compositions comprising same, methods of preparing same and uses of same” (priority 2006, published 2009)

molecular target: T1, human insuline receptor (Ins-R) (Homo sapiens, UniProt P06213); assay: InsR HTRF assay (selectivity vs. Tie2 assay 2); format: biochemical; conditions: IC50 assay 4/IC50 assay 2
T1 construct: GST-tagged recombinant kinase domain of the human insuline receptor; GST; purchased ProQinase, Freiburg, Germany; host or cells: SF-9 cells
Method: Inhibitory activity of compounds against the kinase activity of the insulin receptor was quantified employing the Ins-R HTRF assay as described in the following paragraphs.
GST-tagged recombinant kinase domain of the human insuline receptor (Ins-R, purchase from ProQinase, Freiburg, Germany) expressed in SF-9 cells was used as kinase. As substrate for the kinase reaction biotinylated poly-(Glu,Tyr) (Cis biointernational, France) was used.
Ins-R was incubated for 20 min at 22° C. in the presence of different concentrations of test compounds in 5 μl assay buffer [50 mM Hepes/NaOH pH 7, 15 mM MnCl2, 1 mM dithiothreitol, 0.1 μM sodium ortho-vanadate, 0.015% (v/v) PEG20000, 10 μM adenosine-tri-phosphate (ATP), 0.3 μg/ml substrate, 1% (v/v) dimethylsulfoxide]. The concentration of Ins-R was adjusted depending of the activity of the enzyme lot and was chosen appropriate to have the assay in the linear range, typical concentrations were in the range of 10 pg/μL. The reaction was stopped by the addition of 5 μl of a solution of HTRF detection reagents (0.1 μM streptavidine-XLent and 1 nM PT66-Eu-Chelate, an europium-chelate labelled anti-phospho-tyrosine antibody from Perkin Elmer) in an aqueous EDTA-solution (80 mM EDTA, 0.2% (w/v) bovine serum albumin in 50 mM HEPES/NaOH pH 7.0).
The resulting mixture was incubated 1 h at 22° C. to allow the binding of the biotinylated phosphorylated peptide to the streptavidine-XLent and the PT66-Eu-Chelate. Subsequently the amount of phosphorylated substrate was evaluated by measurement of the resonance energy transfer from the PT66-Eu-Chelate to the streptavidine-XLent. Therefore, the fluorescence emissions at 620 nm and 665 nm after excitation at 350 nm was measured in a HTRF reader, e.g. a Rubystar (BMG Labtechnologies, Offenburg, Germany) or a ViewLux (Perkin-Elmer). The ratio of the emissions at 665 nm and at […] was taken as the measure for the amount of phosphorylated substrate. The data were normalised (enzyme reaction without inhibitor=0% inhibition, all other assay components but no enzyme=100% inhibition) and IC50 values were calculated by a 4 parameter fit using an inhouse software.

T1 sequence (P06213 1023-1298 limits assumed): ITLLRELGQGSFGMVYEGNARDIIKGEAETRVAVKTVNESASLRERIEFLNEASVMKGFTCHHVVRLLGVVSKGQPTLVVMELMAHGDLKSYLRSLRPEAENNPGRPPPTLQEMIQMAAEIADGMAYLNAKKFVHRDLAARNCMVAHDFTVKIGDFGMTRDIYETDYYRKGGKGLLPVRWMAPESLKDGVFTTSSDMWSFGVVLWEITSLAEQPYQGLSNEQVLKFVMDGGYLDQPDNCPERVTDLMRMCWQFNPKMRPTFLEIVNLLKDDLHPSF

| SMILES | Selectivity vs. InsR |
| --- | --- |
| Cn1ncc2c(-c3ccc(NC(=O)Nc4cc(C(C)(C)C)nn4-c4ccncc4)cc3)cncc21 [Example 15.10, 1-(5-tert-Butyl-2-pyridin-4-yl-2H-pyrazol-3-yl)-3-[4-(1-methyl-1H-pyrazolo[3,4-c]pyridin-4-yl)-phenyl]-urea] | >50fold |
| Cn1ncc2c(-c3ccc(NC(=O)Nc4cc(C(C)(C)C)nn4-c4cncc(F)c4)cc3)cncc21 [Example 15.12, 1-[5-tert-Butyl-2-(5-fluoro-pyridin-3-yl)-2H-pyrazol-3-yl]-3-[4-(1-methyl-1H-pyrazolo[3,4-c]pyridin-4-yl)-phenyl]-urea] | >50fold |
| Cn1ncc2c(-c3ccc(NC(=O)Nc4cc(C(C)(C)C)nn4-c4cncc(F)c4)c(F)c3)cncc21 [Example 15.13, 1-[5-tert-Butyl-2-(5-fluoro-pyridin-3-yl)-2H-pyrazol-3-yl]-3-[2-fluoro-4-(1-methyl-1H-pyrazolo[3,4-c]pyridin-4-yl)-phenyl]-urea] | >50fold |
